The values that follow come from ChEMBL document CHEMBL1201862, “PubChem BioAssay data set” (2004).

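Compound exposure: 48 hours, 5 concentrations, 96-well plates. The concentration for 50% growth inhibition is given as GI50.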 Activity calls are given as the source filed them. Cut-off read from the data, not from the text of the source: active = GI50 up to about 1.1 µM and inactive = higher.

Test systems include A549; ACHN; COLO 205; HCC 2998; HCT-116; HL-60; HOP-62; HT-29; K562; MOLT-4; Malme-3M; OVCAR-3; OVCAR-4; OVCAR-8; RXF 393; SF-295; SN12C; SW-620; U-251; UACC-62.
Common to all, as to test: growth of human tumour cells (NCI), 48 h

On to `O=C1Nc2ccccc2/C1=N/NC(=S)Nc1ccccc1Cl`, for which the GI50 in the assay on A549 is 3.58 µM (inactive); with ACHN it was 2.19 µM (inactive); in the assay with COLO 205, 3.63 µM (inactive); with HCC 2998 it was 34.7 µM (inactive); in the assay on HCT-116, 0.729 µM (active); in the assay with HL-60, 4.44 µM (inactive). For the same compound, the GI50 in the assay with HOP-62 was 11.5 µM (inactive); with HT-29 it was 5.41 µM (inactive); in the assay with K562, 1.54 µM (inactive); in the assay with MOLT-4 it was 1.43 µM (inactive); in the assay with Malme-3M, 3.44 µM (inactive); in the assay on OVCAR-3, 2.16 µM (inactive). The GI50 is 5.13 µM (inactive) with OVCAR-4; 2.23 µM (inactive) in the assay on OVCAR-8; 5.2 µM (inactive) in the assay with RXF 393; 1.29 µM (inactive) in the assay on SF-295; 10.4 µM (inactive) with SN12C; 5.9 µM (inactive) with SW-620. Also, the GI50 was 3.56 µM (inactive) in the assay with U-251 and 3.94 µM (inactive) in the assay with UACC-62.

Turning to `CC1(O)CCC2(C#N)CCC1C2O` (stereo not given), the GI50 in the assay with A549 is > 100 µM (inactive); in the assay on ACHN, > 100 µM (inactive); in the assay on COLO 205 it was 33.9 µM (inactive); in the assay on HCC 2998 it was > 100 µM (inactive); in the assay with HCT-116, 43.5 µM (inactive); in the assay with HL-60, > 100 µM (inactive). In addition, the GI50 with HOP-62, with HT-29, in the assay on K562, in the assay on MOLT-4, with Malme-3M and in the assay with OVCAR-3 was > 100 µM (inactive) in each case. In addition, the GI50 in the assay on OVCAR-4, with OVCAR-8, in the assay with RXF 393, in the assay on SF-295, in the assay on SN12C and with U-251 was > 100 µM (inactive) each time. For the same compound, the GI50 in the assay on UACC-62 was > 100 µM (inactive).

With `COCOc1ccc(Cn2c(=O)n(C)c(=O)c3c2ncn3C)cc1[N+](=O)[O-]`, the GI50 in the assay with A549, in the assay with ACHN, in the assay on COLO 205, in the assay on HCC 2998, with HCT-116 and in the assay with HL-60 was > 100 µM (inactive) in each case. Also, the GI50 with HOP-62 is > 10 µM (inactive); in the assay with HT-29 it was 10.2 µM (inactive); with K562, > 100 µM (inactive); with MOLT-4, 91.8 µM (inactive); in the assay on Malme-3M, > 100 µM (inactive); in the assay with OVCAR-3, > 100 µM (inactive). The GI50 is > 100 µM (inactive) in the assay on OVCAR-8; > 100 µM (inactive) in the assay with RXF 393; 25.7 µM (inactive) with SF-295; > 100 µM (inactive) in the assay with SN12C; > 100 µM (inactive) in the assay on SW-620; > 100 µM (inactive) in the assay with U-251. Besides, in the assay on UACC-62, the GI50 is > 100 µM (inactive).

On to `CN1CC(c2ccccc2)N(CCCCN2CC(c3ccccc3)N(C)CC2c2ccccc2)CC1c1ccccc1` (stereo not given), for which the GI50 with A549 is 33.4 µM (inactive); in the assay with ACHN, > 100 µM (inactive); with COLO 205, 28.8 µM (inactive); in the assay on HCC 2998, 24.4 µM (inactive); in the assay with HCT-116 it was 11.9 µM (inactive); in the assay with HL-60, 29.3 µM (inactive). Further, the GI50 is 28.4 µM (inactive) in the assay with HOP-62; 24.4 µM (inactive) in the assay on HT-29; 19.3 µM (inactive) in the assay with K562; 23.2 µM (inactive) with MOLT-4; 31.7 µM (inactive) in the assay with Malme-3M; 53.3 µM (inactive) in the assay with OVCAR-3. The GI50 in the assay with OVCAR-4 is 37.7 µM (inactive); with OVCAR-8, 44.3 µM (inactive); in the assay with RXF 393, 21.9 µM (inactive); with SF-295, 34.8 µM (inactive); in the assay on SN12C it was 46.5 µM (inactive); in the assay on SW-620, 35.2 µM (inactive). Moreover, the GI50 in the assay on UACC-62 was 30.7 µM (inactive).

As for `CC1(C)CCC[C@]2(C)[C@@H](C=O)C(C=O)=CC[C@@H]12` [POLYGODIAL], the GI50 with A549 was 37.5 µM (inactive); with ACHN it was 16.9 µM (inactive); in the assay on COLO 205, 18.2 µM (inactive); with HCC 2998 it was 18.4 µM (inactive); in the assay with HCT-116 it was 28.6 µM (inactive); with HL-60 it was 18.4 µM (inactive). Besides, the GI50 is 30.6 µM (inactive) with HOP-62; 16.4 µM (inactive) in the assay on HT-29; 9.33 µM (inactive) in the assay with MOLT-4; 15.2 µM (inactive) in the assay with Malme-3M; 14.9 µM (inactive) in the assay with OVCAR-3; 15.8 µM (inactive) in the assay with OVCAR-4. Further, the GI50 in the assay with OVCAR-8 was 16.4 µM (inactive); in the assay with RXF 393, 17.1 µM (inactive); in the assay with SF-295 it was 21.9 µM (inactive); in the assay on SN12C, 20.6 µM (inactive); with SW-620 it was 35.4 µM (inactive); in the assay with U-251, 19 µM (inactive). Also, the GI50 in the assay with UACC-62 is 18.4 µM (inactive).

Regarding `COc1ccc(-c2cc(O)c3c(C)cc(C)nc3n2)cc1`, the GI50 was 55.3 µM (inactive) in the assay on A549; 44.1 µM (inactive) with ACHN; 20.8 µM (inactive) in the assay with COLO 205; 43.2 µM (inactive) in the assay on HCC 2998; 15.8 µM (inactive) in the assay with HL-60; 26.8 µM (inactive) in the assay with HOP-62. The GI50 is 20.3 µM (inactive) in the assay on HT-29; 23 µM (inactive) in the assay with K562; 16 µM (inactive) in the assay on MOLT-4; 29 µM (inactive) with Malme-3M; 26.4 µM (inactive) in the assay with OVCAR-4; 33.5 µM (inactive) in the assay on OVCAR-8. The GI50 with RXF 393 was 49.7 µM (inactive); in the assay on SN12C, 44.3 µM (inactive); in the assay with SW-620 it was 38.9 µM (inactive); in the assay on UACC-62, 18.4 µM (inactive).

For the compound `COC(=O)C1=COC2OC3CC1C2C(C)O3` (stereo not given), the GI50 with A549, in the assay on ACHN, with COLO 205, in the assay on HCC 2998, in the assay with HCT-116 and in the assay with HL-60 was > 100 µM (inactive) throughout. The GI50 in the assay on HOP-62, with HT-29, with MOLT-4, with Malme-3M, in the assay with OVCAR-3 and with OVCAR-4 was > 100 µM (inactive) each time. Besides, the GI50 with OVCAR-8, in the assay on RXF 393, in the assay with SF-295, in the assay with SN12C, in the assay on SW-620 and in the assay on U-251 was > 100 µM (inactive) in each case. For the same compound, in the assay on UACC-62, the GI50 is > 100 µM (inactive).

With `C/C1=C\[C@@H](C)C[C@@H](C)OC(=O)[C@@H](C)NC(=O)[C@H](Cc2ccc(O)c(Br)c2)N(C)C(=O)CNC(=O)[C@H](C)C1`, the GI50 with A549, with ACHN, in the assay on COLO 205, with HCC 2998, with HCT-116 and in the assay with HL-60 was < 0.01 µM (active) in each case. In addition, the GI50 in the assay with HOP-62 is < 0.01 µM (active); in the assay on HT-29 it was < 0.01 µM (active); in the assay with K562, < 0.01 µM (active); in the assay with MOLT-4, 0.143 µM (active); in the assay with Malme-3M, 0.0328 µM (active); in the assay with OVCAR-3 it was < 0.01 µM (active). Further, the GI50 in the assay on OVCAR-4 is < 0.01 µM (active); in the assay on OVCAR-8, 0.137 µM (active); with RXF 393, < 0.0184 µM (active); in the assay on SF-295 it was 0.0114 µM (active); with SN12C, 0.119 µM (active); in the assay on SW-620 it was < 0.01 µM (active). Besides, the GI50 in the assay on U-251 is < 0.01 µM (active).
